Measured values: paper PMC10655131 (Journal of medicinal chemistry, 2021)

How the values were obtained:
recombinant HIV-1 RT [1] = settings: read-out: IC50 (Anti-HIV RT enzyme inhibition activity); mean ± SD, n = 3; cited from earlier work
recombinant HIV-1 RT [2] = assay: colorimetric Reverse Transcriptase Assay; format: biochemical
HIV-1HXB2 = format: cell-based; settings: antiviral EC50 relative to best inhibitor (NBD-14189)
TZM-bl cells = settings: read-out: CC50 (cytotoxicity), XTT, three days; cited from earlier work

For `CC1(C)CC(NC(=O)C(=O)Nc2ccc(Cl)cc2)CC(C)(C)N1` [NBD-556], the IC50 (recombinant HIV-1 RT [1]) is given as > 200 µM.

With `NC[C@@H](NC(=O)c1ccc(-c2ccc(Cl)c(F)c2)[nH]1)c1ncc(CO)s1` [NBD-14075] the “increase in the IC50 value” (recombinant HIV-1 RT [2]; 075 vs. 189 and 270) was ~ 10 fold.

In the case of `NC[C@H](NC(=O)c1ccc(-c2ccc(C(F)(F)F)cc2)[nH]1)c1nc(CO)cs1` [NBD-14189], the “Fold-change from best inhibitor (IC50)” value (recombinant HIV-1 RT [2]; RT IC50 relative to best inhibitor (NBD-14189)) is reported as 1 and the “Fold-change from best inhibitor (EC50)” value (HIV-1HXB2) is reported as 1.

In the case of `NC[C@@H](NC(=O)c1ccc(-c2ccc(C(F)(F)F)cn2)[nH]1)c1ncc(C(O)CO)s1` (some centres unmarked) [NBD-14306], the CC50 (TZM-bl cells) is listed as > 113 µM.
